From patent US7608622B2, “Imidazo[4,5-b]pyrazinone inhibitors of protein kinases” (Janssen Pharmaceutica NV, priority 2004, dated 2009)

Molecular target: T1, Aurora-2 (Homo sapiens, UniProt O14965)
T1 construct: autophosphorylation of Aurora-2 (residues 125-391)
T1 sequence (O14965 125-391): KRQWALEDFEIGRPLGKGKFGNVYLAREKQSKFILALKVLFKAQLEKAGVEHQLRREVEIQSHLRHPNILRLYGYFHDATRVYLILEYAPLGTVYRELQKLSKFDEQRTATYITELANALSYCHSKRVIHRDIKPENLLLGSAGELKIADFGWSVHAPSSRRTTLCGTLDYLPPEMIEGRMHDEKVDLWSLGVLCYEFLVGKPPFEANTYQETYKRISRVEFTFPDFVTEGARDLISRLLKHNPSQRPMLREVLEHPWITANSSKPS
Experiment: Aurora-2 Enzymatic Assay (ELISA-based)
Assay type: biochemical
Settings: phosphorylated Aurora-2 (residues 125-391), Histone H3 Ser-10 phosphorylation, averages of three independent measurements; read-out: Aurora-2 IC50 Enzyme
Description: In vitro assays were run to measure potency of Aurora-2 kinase inhibition by selected compounds of Formula I.
Aurora-2 Enzymatic Assay. An ELISA-based enzymatic assay was used to determine the compound potency for Aurora-2. In this assay, phosphorylated Aurora-2 (Pi-Aurora-2) catalyzes the ATP-dependent phosphorylation of Ser-10 of Histone H3. Pi-Aurora-2 was produced by autophosphorylation of Aurora-2 (residues 125-391) by 1 mM ATP in the presence of 10 mM MgCl2. The assay buffer used was 100 mM HEPES, pH 7.5, 1 mM DTT, 0.01% (v/v) Tween-20. Compounds were diluted in assay buffer containing 4% DMSO just prior to the assay. • Procedure. High-binding 96-well ELISA plates (Costar 9018) were coated overnight at 4° C. with 10 μg/ml human Histone H3 (Upstate) in PBS (100 μl/well). The following day, the plates were emptied and blocked with 1% BSA in PBS (150 μl/well) for 1 h at 37° C. At the end of the incubation, plates were washed 3 times with 0.01% Tween-20 in PBS (300 μl/well). 50 μl of compound were dispensed to each well followed by addition of 20 μl 10 mM MgCl2 and 20 μl 50 μM ATP (Sigma). The reaction was initiated by addition of 10 μl 30 nM Pi-Aurora-2. […] The reaction was quenched with 9 μl 50 mM EDTA and the plates were washed 5 times with 0.01% Tween-20 in PBS (300 μl/well). The phospho-histone H3 (Ser10) 6G3 monoclonal antibody (Cell Signaling) was then diluted 2,000-fold with 1% BSA in PBS, and was added to the plates (100 μl/well). Following 1 h incubation at 37° C., the plates were washed as described above. The HRP-conjugated secondary antibody (goat anti-mouse Ig(H+ L)-HRP human absorbed, Southern Biotechnology Associates, Inc.) was diluted 20,000-fold with 1% BSA in PBS and was added to the plates (100 μl/well). The plates were incubated for 1 h at 37° C. and then washed 5 times with 0.01% Tween-20 in PBS (300 μl/well). 100 μl/well TMB, SureBlue Reserve (KPL) were added. After ca. 5-6 min, each well received 100 μl 1 M HCl and the OD450 was measured with a SpectraMax Plus microplate reader (Molecular Devices). Under these conditions, absorbance values for positive and negative controls were ca. 0.1 and 1.7, respectively, and were used to define the 100% and 0% inhibition of the Aurora-2 reaction. The IC50 values reported (Table 1) are the averages of three independent measurements.

| IC50 | SMILES |
| --- | --- |
| > 1000 nM | COc1cccc(-c2cnc3[nH]c(=O)n(Cc4ccccc4)c3n2)c1 [Compound 17, 1-Benzyl-6-(3-methoxyphenyl)-1,3-dihydroimidazo[4,5-b]pyrazin-2-one] |
| > 1000 nM | O=c1[nH]c2ncc(-c3cccs3)nc2n1Cc1ccccc1 [Compound 16, 1-Benzyl-6-thiophen-2-yl-1,3-dihydroimidazo[4,5-b]pyrazin-2-one] |
| > 1000 nM | O=c1[nH]c2ncc(-c3cccnc3)nc2n1Cc1ccccc1 [Compound 9, 1-Benzyl-6-pyridin-3-yl-1,3-dihydroimidazo[4,5-b]pyrazin-2-one] |
| > 1000 nM | COc1cc(-c2cnc3[nH]c(=O)n([C@H](C)c4ccccc4)c3n2)cc(OC)c1OC [Compound 2, 1-((R)-(+)-1-Phenylethyl)-6-(3,4,5-trimethoxyphenyl)-1,3-dihydro-imidazo[4,5-b]pyrazin-2-one] |
| 500 to 1000 nM | COc1cccc(Cn2c(=O)[nH]c3ncc(-c4cc(OC)c(OC)c(OC)c4)nc32)c1 [Compound 32, 1-(3-Methoxybenzyl)-6-(3,4,5-trimethoxyphenyl)-1,3-dihydro-imidazo[4,5-b]pyrazin-2-one] |
| > 1000 nM | C[C@@H](c1ccccc1)n1c(=O)[nH]c2ncc(-c3cccc(C#N)c3)nc21 [Compound 6, 3-[2-Oxo-3-((S)-(−)-1-phenylethyl)-2,3-dihydro-1H-imidazo[4,5-b]pyrazin-5-yl]benzonitrile] |
| < 500 nM | COc1cc(-c2cnc3[nH]c(=O)n(Cc4cccnc4)c3n2)cc(OC)c1OC [Compound 20, 1-Pyridin-3-yl methyl-6-(3,4,5-trimethoxyphenyl)-1,3-dihydroimidazo-[4,5-b]pyrazin-2-one] |
